Test results taken from US10925965B2, “Protein formulations with increased stability” (Arecor Limited, priority 2010, dated 2021).
Like-named read-outs stand apart in the source and are kept apart here.

Key:
[1] = system: horseradish peroxidase (HRP); assay: Stability of horseradish peroxidase (HRP) at 60° C. (enzyme activity recovery, optical assay) with preservative and additives; format: biochemical
Experimental: HRP was obtained from Sigma (P8250), The enzyme was formulated at 0.5 mg/ml. Measurements of enzyme activity were performed on a 96-well plate using an optical assay: 20 μl of the formulation was mixed with 180 μl enzyme diluent solution (1.82 mM ABTS, 28 mM hydrogen peroxide in 0.1M sodium phosphate buffer pH 7.0). The resulting solution was mixed thoroughly and absorbance was read at 630 nm using a plate reader after 5 min. Optical density was calibrated using a range of concentrations of a reference enzyme solution. All measurements were carried out in triplicates and average value was recorded. Stability of enzyme was found in the preliminary experiments to be optimal at pH around 7.0 and relatively independent of ionic strength. The preservation of the enzyme activity was studied in background formulations containing 10 mM TRIS and 1,2-propanediol (300 mM) at pH 7.0. With the exception of control solutions, the solutions contained m-cresol (30 mM). The effect of the stabilizing excipients was studied by comparing the stability of HRP in the solution containing the preservative only with that in the solution containing both the preservative and the stabilizing component. The concentration of the additives tested was selected based on their solubility in aqueous solutions.

[2] = cited from earlier work
[3] = target: T1, uricase (Cyberlindnera jadinii, UniProt P78609); assay: Stability of uricase at 60° C. (enzyme activity recovery, optical assay) with preservative and additives; format: biochemical; details: pH 8.0
T1 construct: purchased Sigma U0880
T1 sequence (P78609 1-303): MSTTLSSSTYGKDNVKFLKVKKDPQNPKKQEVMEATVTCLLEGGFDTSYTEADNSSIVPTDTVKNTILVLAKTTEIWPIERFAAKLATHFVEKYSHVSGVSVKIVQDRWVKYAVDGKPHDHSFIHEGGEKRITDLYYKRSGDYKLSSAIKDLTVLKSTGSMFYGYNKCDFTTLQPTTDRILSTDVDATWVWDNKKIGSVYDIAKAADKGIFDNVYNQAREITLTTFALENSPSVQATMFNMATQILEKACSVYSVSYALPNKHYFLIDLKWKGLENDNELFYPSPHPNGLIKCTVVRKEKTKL
Experimental: Uricase was obtained from Sigma (U0880). The enzyme was formulated at 100 μg/ml. Measurements of enzyme activity were performed on a 96-well plate using an optical assay: 10 μl of the formulation was mixed with […] (borate buffer 25 mM, pH 8.5) and 50 μL substrate (sodium urate 2 mM). The mixture was equilibrated at room temperature for about 5 min. After 5 min, the following reagents were added in this particular order to each sample (the first reagent must be added at exactly 5 min, the timing of the other reagents addition is less crucial): 50 μl of citrate/phosphate buffer (0.5 M. pH 4.0); 15 μL of TMB (3 mg/mL, dissolved in DMSO) then 15 μL of lactoperoxidase (1 mg/mL, dissolved in water). The resulting solution was mixed thoroughly and absorbance was read at 630 nm using a plate reader. Optical density was calibrated using a range of concentrations of a reference enzyme solution. All measurements were carried out in triplicates and average value was recorded. Stability of enzyme was found in the preliminary experiments to be optimal at pH around 8.0, with minimal effect of ionic strength on the stability. The preservation of the enzyme activity was studied in a background formulation containing 10 mM histidine and 300 mM 1,2-propanediol, adjusted to pH 8. […] The effect of the stabilizing excipients was studied by comparing the stability of uricase in the solution containing the preservative only with that in the solution containing both the preservative and the stabilizing component. The concentration of the additives tested was selected based on their solubility in aqueous solutions.

[4] = target: human growth hormone (hGH) (Homo sapiens, UniProt P01241); assay: Formation of high molecular weight species (HMWS) in aqueous hGH solutions at 40° C., size-exclusion HPLC; format: physicochemical; details: 10 mM benzoate anion, background solutions 1 and 2, 40° C.
Experimental: Formation of high molecular weight species (HMWS) was followed in aqueous solutions of hGH (15 mg/mL) using the following size-exclusion HPLC method: The mobile phase was prepared by mixing 97 parts (v/v) of 63 mM sodium phosphate (pH 7.0) with 3 parts (v/v) of propan-2-ol. The mobile phase was filtered prior to its use. The liquid chromatograph (Agilent 1100 series) was equipped with a 214 nm detector, guard column and a 7.8×300 mm BioSep SEC-S2000 column. The flow rate was maintained at 0.6 ml/min. 15 μl of aqueous samples of hGH were injected. The percentage of HMS was expressed as the ratio of the total area of all peaks with shorter elution time than the monomeric form of hGH versus the total peak area, ignoring peaks corresponding the excipients. The hGH solutions were incubated at 40° C. and assessed for the presence of HMWS at specific timepoints. In addition, the samples were assessed by eye for signs of visible precipitation.

human growth hormone (hGH), sequence (P01241 27-217): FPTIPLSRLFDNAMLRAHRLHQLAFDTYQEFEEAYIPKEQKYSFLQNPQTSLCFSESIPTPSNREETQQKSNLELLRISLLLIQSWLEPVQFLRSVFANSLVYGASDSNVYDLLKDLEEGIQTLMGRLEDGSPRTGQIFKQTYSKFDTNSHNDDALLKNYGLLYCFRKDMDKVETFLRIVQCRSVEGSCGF

With “HRP: HRP obtained from Sigma (P8250), formulated at 0.5 mg/ml” the “pH of optimal stability of enzyme” value ([1]; preliminary experiments) was “around 7.0”.
In the case of `O=C(O)c1cc(O)c(O)c(O)c1` [3,4,5-trihydroxybenzoic acid], the “pKa value(s) of carboxylate group(s)” value ([2]; first or only value given) is listed as 4.41.
With `OCc1ccccc1` [Benzyl alcohol] the “Effect on stability of uricase at 60° C.” value [3] was “impairment of stability”.
In the case of `Oc1ccccc1` [Phenol], the “Effect on stability of uricase at 60° C.” value [3] is reported as “impairment of stability”.
In the case of `O=C(O)c1ccccc1C(=O)O` [phthalic acid], the “pKa value(s) of carboxylate group(s)” value ([2]; second value printed (second carboxylate group)) is listed as 5.28.
In the case of `O=C(O)Cc1c[nH]c2ccccc12` [indole-3-acetic acid], the “pKa value(s) of carboxylate group(s)” value ([2]; first or only value given) is listed as 4.75.
In the case of `O=C(O)c1ccc2ccccc2c1` [2-naphthoic acid], the “pKa value(s) of carboxylate group(s)” value ([2]; first or only value given) is listed as 4.17.
For `Cc1cccc(O)c1` [m-Cresol], the “Effect on stability of HRP at 60° C.” value ([1]; 60° C., pH 7.0) was “slight impairment of stability”.
For `O=C(O)/C=C\c1ccccc1` [cis-cinnamic acid], the “pKa value(s) of carboxylate group(s)” value ([2]; first or only value given) is listed as 3.89.
With `O=C([O-])c1ccccc1.[K+]` [benzoate anion, potassium benzoate] the “Effect on rate of HMWS formation” value [4] was “lower rate of HMWS formation”.
In the case of `COc1cc(C(=O)O)ccc1O` [4-hydroxy-3-methoxybenzoic acid], the “pKa value(s) of carboxylate group(s)” value ([2]; first or only value given) is listed as 4.5.
With `O=C(O)C1CCCCC1` [Cyclohexane carboxylic acid, reference compound] the “Effect on stability of uricase at 60° C.” value [3] was “increase in the destabilising effect”.
